Laboratory results published in ChEMBL document CHEMBL1201862, “PubChem BioAssay data set” (2004).
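Results reflect a 48-hour exposure of cells in 96-well plates to compound at five concentrations. GI50 marks 50% less growth.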 Activity calls are given as the source filed them. Rule as the data show it: active = GI50 up to about 1.1 µM and inactive = higher.

Tests used:
Experiment in all cases: NCI anticancer screen, dose series, 48 h
NCI-H23 = test system: NCI-H23
SNB-75 = test system: SNB-75
HCT-15 = test system: HCT-15
CCRF-CEM = test system: CCRF-CEM
K562 = test system: K562
ACHN = test system: ACHN
SNB-19 = test system: SNB-19
MOLT-4 = test system: MOLT-4
U-251 = test system: U-251
NCI-H226 = test system: NCI-H226
MCF7 = test system: MCF7
NCI-H522 = test system: NCI-H522
SK-MEL-2 = test system: SK-MEL-2
HOP-62 = test system: HOP-62
MDA-MB-231 = test system: MDA-MB-231
DU-145 = test system: DU-145
KM12 = test system: KM12
EKVX = test system: EKVX
RXF 393 = test system: RXF 393
HOP-92 = test system: HOP-92

| SMILES | GI50 (NCI-H23) | GI50 (SNB-75) | GI50 (HCT-15) | GI50 (CCRF-CEM) | GI50 (K562) | GI50 (ACHN) | GI50 (SNB-19) | GI50 (MOLT-4) | GI50 (U-251) | GI50 (NCI-H226) | GI50 (MCF7) | GI50 (NCI-H522) | GI50 (SK-MEL-2) | GI50 (HOP-62) | GI50 (MDA-MB-231) | GI50 (DU-145) | GI50 (KM12) | GI50 (EKVX) | GI50 (RXF 393) | GI50 (HOP-92) |
| --- | --- | --- | --- | --- | --- | --- | --- | --- | --- | --- | --- | --- | --- | --- | --- | --- | --- | --- | --- | --- |
| O=C(O)c1cc(-c2ccc3cc(O)c(O)cc3c2)ccc1O | > 12.5 µM (inactive) | 4.94 µM (inactive) | > 12.5 µM | > 12.5 µM (inactive) | > 12.5 µM (inactive) | > 12.5 µM (inactive) | > 12.5 µM (inactive) | > 12.5 µM (inactive) | > 12.5 µM (inactive) | > 12.5 µM (inactive) | > 12.5 µM (inactive) | > 12.5 µM (inactive) | > 12.5 µM (inactive) | > 12.5 µM (inactive) | > 12.5 µM (inactive) | > 12.5 µM (inactive) | > 12.5 µM (inactive) |  |  |  |
| COc1ccc(/C=C2\CCC(C)c3c2nc(N)c(C#N)c3-c2ccc(OC)c(OC)c2)cc1OC (stereo unspecified) | 5.6 µM (inactive) |  | 5.71 µM | 3.89 µM (inactive) | 12 µM (inactive) | 15.7 µM (inactive) | 72.4 µM (inactive) | 3.1 µM (inactive) | 9.44 µM (inactive) | 5.7 µM (inactive) | 5.65 µM (inactive) |  | 2.42 µM (inactive) | 2.05 µM (inactive) | 9.89 µM (inactive) | 20.7 µM (inactive) | 7.6 µM (inactive) | 1.36 µM (inactive) | 4.01 µM (inactive) |  |
| COc1ccc(/N=N/C(=O)NC(CC(C)C)C(=O)NC(CC(C)C)C(=O)O)cc1 (stereo unspecified) | > 100 µM (inactive) | > 100 µM (inactive) | 19.5 µM | 42.6 µM (inactive) | 8.45 µM (inactive) | 12.5 µM (inactive) | > 100 µM (inactive) | 41.6 µM (inactive) | > 100 µM (inactive) | > 100 µM (inactive) | > 100 µM (inactive) | 51.9 µM (inactive) |  | > 100 µM (inactive) |  | 27.7 µM (inactive) | 43.8 µM (inactive) | > 100 µM (inactive) | > 100 µM (inactive) | > 100 µM (inactive) |
| O=C1CCCCC1=C(I)I |  | 18.5 µM (inactive) |  | 19.1 µM (inactive) | 16 µM (inactive) | 17.6 µM (inactive) | 12.1 µM (inactive) | 17.9 µM (inactive) | 16.3 µM (inactive) | 19.7 µM (inactive) |  |  | 16.7 µM (inactive) | 28.7 µM (inactive) |  | 19.7 µM (inactive) | 15.5 µM (inactive) | 1.88 µM (inactive) | 16.2 µM (inactive) | 15.4 µM (inactive) |
| O=C(CC(=O)N1N=C(N2c3ccccc3Sc3ccccc32)CC1c1ccccc1)Nc1ccccc1Cl (stereo unspecified) | > 100 µM (inactive) | > 100 µM (inactive) | > 100 µM | > 100 µM (inactive) | > 100 µM (inactive) | > 100 µM (inactive) | > 100 µM (inactive) | > 100 µM (inactive) | > 100 µM (inactive) | > 100 µM (inactive) |  | > 100 µM (inactive) | > 100 µM (inactive) | > 100 µM (inactive) | > 100 µM (inactive) | > 100 µM (inactive) | > 100 µM (inactive) | > 100 µM (inactive) | > 100 µM (inactive) | > 100 µM (inactive) |
| CNC(=O)CN(CC(N)=O)C(=O)NC | > 100 µM (inactive) | > 100 µM (inactive) | > 100 µM | > 100 µM (inactive) | > 100 µM (inactive) | > 100 µM (inactive) | > 100 µM (inactive) | > 100 µM (inactive) | > 100 µM (inactive) | > 100 µM (inactive) |  | > 100 µM (inactive) | > 100 µM (inactive) | > 100 µM (inactive) |  |  | > 100 µM (inactive) | > 100 µM (inactive) | > 100 µM (inactive) | > 100 µM (inactive) |
| C=CC(=O)Nc1ccc(NC(=O)C=C)c2c1C(=O)c1ccccc1C2=O | 48.6 µM (inactive) |  | 41.9 µM |  | 15.7 µM (inactive) | 61.7 µM (inactive) | > 100 µM (inactive) | 21.6 µM (inactive) | 20.9 µM (inactive) |  | 21 µM (inactive) | 16.6 µM (inactive) | 69.3 µM (inactive) | > 100 µM (inactive) | 97.7 µM (inactive) |  | 12 µM (inactive) | > 100 µM (inactive) |  |  |
| C=C1C(C(=O)O)C1C(=O)O (stereo unspecified) | > 100 µM (inactive) | > 100 µM (inactive) | > 100 µM | > 100 µM (inactive) | > 100 µM (inactive) | > 100 µM (inactive) | > 100 µM (inactive) | > 100 µM (inactive) | > 100 µM (inactive) | 21.1 µM (inactive) |  | > 100 µM (inactive) | > 100 µM (inactive) | > 100 µM (inactive) |  |  | > 100 µM (inactive) | > 100 µM (inactive) | > 100 µM (inactive) | > 100 µM (inactive) |
| Cc1ccc(S(=O)(=O)n2c(-c3ccccc3)c(-c3ccccc3)c3ccccc32)cc1 | 17.7 µM (inactive) | > 100 µM (inactive) | > 100 µM | > 100 µM (inactive) | 64.9 µM (inactive) | > 100 µM (inactive) | > 100 µM (inactive) | > 100 µM (inactive) | > 100 µM (inactive) | > 100 µM (inactive) |  | > 100 µM (inactive) | > 100 µM (inactive) | > 100 µM (inactive) |  |  | > 100 µM (inactive) | > 100 µM (inactive) | > 100 µM (inactive) | 3.08 µM (inactive) |
| CCOc1cc(/C=C/C=C/C=C/c2ccc(N(C)C)cc2)[s+]c2ccccc12 | 29.9 µM (inactive) | 32 µM (inactive) | 26.4 µM | 4.88 µM (inactive) | 20.9 µM (inactive) | 35.6 µM (inactive) | 24.1 µM (inactive) | 5.5 µM (inactive) | 31.8 µM (inactive) | 11.1 µM (inactive) |  | 4.56 µM (inactive) | 37.3 µM (inactive) | 95.5 µM (inactive) |  |  | 10.1 µM (inactive) | > 100 µM (inactive) | 10 µM (inactive) | 25.1 µM (inactive) |
| CC(C)=C[C@H]1CCC2(OCCO2)[C@]1(C)COCc1ccccc1 | 25.8 µM (inactive) | 45.4 µM (inactive) | 39.5 µM | 16.1 µM (inactive) |  | 34.4 µM (inactive) | 37.7 µM (inactive) | 13.8 µM (inactive) |  | 14.1 µM (inactive) | 41.3 µM (inactive) | 29 µM (inactive) | 25.5 µM (inactive) |  | 19.7 µM (inactive) |  | 33.7 µM (inactive) | 33 µM (inactive) | 5.98 µM (inactive) |  |
| COc1ccc(N2C(=O)c3cc([N+](=O)[O-])cnc3S2(=O)=O)cc1 | > 100 µM (inactive) | > 100 µM (inactive) | > 100 µM | > 100 µM (inactive) | > 100 µM (inactive) | > 100 µM (inactive) | > 100 µM (inactive) | > 100 µM (inactive) | > 100 µM (inactive) | > 100 µM (inactive) |  | > 100 µM (inactive) | > 100 µM (inactive) | > 100 µM (inactive) | > 100 µM (inactive) | > 100 µM (inactive) | > 100 µM (inactive) | > 100 µM (inactive) | > 100 µM (inactive) | > 100 µM (inactive) |
| O=C(Nc1ccc(Cl)cc1)c1cccc([N+](=O)[O-])c1O | 2.43 µM (inactive) | 3.52 µM (inactive) | 4.84 µM | 2.06 µM (inactive) | 2.58 µM (inactive) | 2.85 µM (inactive) | 2.92 µM (inactive) | 2.5 µM (inactive) | 2.7 µM (inactive) | 2.33 µM (inactive) |  | 1.98 µM (inactive) | 2.02 µM (inactive) | 1.98 µM (inactive) |  |  | 4.53 µM (inactive) | 2.98 µM (inactive) | 1.78 µM (inactive) | 1.61 µM (inactive) |
| COc1cc2c(Cc3cc(OCc4ccccc4)ccc3N)nccc2c(OC)c1OC | > 10 µM (inactive) | > 10 µM (inactive) | > 10 µM | > 10 µM (inactive) | > 10 µM (inactive) | > 10 µM (inactive) | > 10 µM (inactive) | > 10 µM (inactive) | > 10 µM (inactive) | > 10 µM (inactive) |  | > 10 µM (inactive) | > 10 µM (inactive) | > 10 µM (inactive) |  |  | > 10 µM (inactive) | > 10 µM (inactive) | > 10 µM (inactive) | > 10 µM (inactive) |
| COc1ccc(C(=O)O/N=C2/CCCCC2CN(C)C)cc1 (stereo unspecified) | > 100 µM (inactive) | > 100 µM (inactive) | > 100 µM | > 100 µM (inactive) | > 100 µM (inactive) | > 100 µM (inactive) |  | > 100 µM (inactive) | > 100 µM (inactive) | > 100 µM (inactive) |  | > 100 µM (inactive) | > 100 µM (inactive) | > 100 µM (inactive) |  |  | > 100 µM (inactive) | > 100 µM (inactive) | > 100 µM (inactive) | > 100 µM (inactive) |
| COC(=O)C12C3C4C5(C(=O)OC)C(C1C35C(=O)N(C(C)C)C(C)C)C42C(=O)N(C(C)C)C(C)C (stereo unspecified) | > 50 µM (inactive) | > 35.5 µM (inactive) | > 23.3 µM | > 50 µM (inactive) | > 47.4 µM (inactive) | > 50 µM (inactive) | > 50 µM (inactive) | > 50 µM (inactive) | > 50 µM (inactive) | > 50 µM (inactive) |  | > 47.2 µM (inactive) | > 50 µM (inactive) | > 50 µM (inactive) |  |  | > 50 µM (inactive) | > 50 µM (inactive) | > 50 µM (inactive) | > 50 µM (inactive) |
| CCCN(CCC)C(=O)Cc1c2n(c3ccccc13)CCCc1ccccc1-2 | 13 µM (inactive) | 11.9 µM (inactive) | 11.6 µM | 17.4 µM (inactive) | 12.5 µM (inactive) | 12.6 µM (inactive) | 14.6 µM (inactive) | 12.9 µM (inactive) | 15.7 µM (inactive) | 15.1 µM (inactive) |  | 12.6 µM (inactive) | 13.1 µM (inactive) | 16.4 µM (inactive) |  |  | 12.6 µM (inactive) | 15.1 µM (inactive) | 10.4 µM (inactive) | 4.2 µM (inactive) |
